# Literature values, collected in patent US20220087839A1, “Arterial Drug Eluting Device to Treat Diabetes With Targeted Delivery of Medication” (Becton, Dickinson and Company, priority 2020, published 2022).
# Key:
# glucagon [1] = details: intravenous infusion of 25 micrograms per hour, Type 1 diabetic
# human alpha-cells = details: in vitro
# glucagon [2] = details: intravenous infusion of 500 micrograms per hour, Type 1 diabetics
# [3] = in vivo
# [4] = system: beta and alpha cells of the pancreas
compound,measurement,setting,value
CC[C@H](C)[C@H](NC(=O)[C@@H]1CCCN1C(=O)CNC(=O)[C@H](Cc1ccccc1)NC(=O)[C@H](CC(N)=O)NC(=O)[C@H](CC(N)=O)NC(=O)[C@H](CO)NC(=O)[C@H](CO)NC(=O)[C@H](Cc1c[nH]cn1)NC(=O)[C@@H](NC(=O)[C@H](CC(C)C)NC(=O)[C@H](Cc1ccccc1)NC(=O)[C@H](CC(N)=O)NC(=O)[C@H](C)NC(=O)[C@H](CC(C)C)NC(=O)[C@H](CCCNC(=N)N)NC(=O)[C@H](CCC(N)=O)NC(=O)[C@@H](NC(=O)[C@H](C)NC(=O)[C@@H]1CSSC[C@H](NC(=O)[C@@H](N)CCCCN)C(=O)N[C@@H](CC(N)=O)C(=O)N[C@@H]([C@@H](C)O)C(=O)N[C@@H](C)C(=O)N[C@@H]([C@@H](C)O)C(=O)N1)[C@@H](C)O)C(C)C)C(=O)N[C@@H](CC(C)C)C(=O)N1CCC[C@H]1C(=O)N1CCC[C@H]1C(=O)N[C@H](C(=O)N[C@@H](CC(N)=O)C(=O)N[C@H](C(=O)NCC(=O)N[C@@H](CO)C(=O)N[C@@H](CC(N)=O)C(=O)N[C@H](C(=O)N[C@@H](Cc1ccc(O)cc1)C(N)=O)[C@@H](C)O)C(C)C)[C@@H](C)O [Pramlintide],suppression of glucagon spike from a standardized meal,glucagon [1],could suppress a glucagon spike from a standardized meal
leptin,concentration that could suppress functional response to glucose,human alpha-cells,0.625 nmol/L
somatostatin,suppression of glucagon spikes,glucagon [2],suppressed glucagon spikes
same,half life,[3],3 min
same,effect on insulin and glucagon release,[4],inhibit both insulin and glucagon release
